Experiments:
[1] = tested on: Salmonella typhimurium (Gram−); assay: Minimum inhibitory concentration (MIC) study of quaternary ammonium biocides; type: cell-based; conditions: unit assumed
S. aureus (Gram+) = assay: as above; type: cell-based, Staphylococcus aureus; conditions: unit assumed
[2] = tested on: B. anthracis Sterne strain (Gram+); type: cell-based, Bacillus anthracis Sterne strain; conditions: unit assumed
Escherichia coli (Gram−) = assay: Minimum inhibitory concentration (MIC) study of quaternary ammonium biocides; type: cell-based; conditions: unit assumed
B. anthracis Sterne = type: cell-based, Bacillus anthracis Sterne strain
S. aureus = assay: Tube dilution method with neutralizing agent to quench residual biocide activity; type: cell-based, Staphylococcus aureus; conditions: starting cfu/mL 5.46 × 10^7; NG = no growth
E. coli = assay: as above; type: cell-based, Escherichia coli; conditions: starting cfu/mL 4.76 × 10^7; NG = no growth

Row | SMILES | MIC S. typhimurium (Gram−) [1] [µg/mL] | MIC S. aureus (Gram+) (S. aureus (Gram+)) [µg/mL] | MIC B. anthracis (Gram+) [2] [µg/mL] | MIC E. coli (Gram−) (Escherichia coli (Gram−)) [µg/mL] | B. anthracis S.S. count after biocide, tube dilution method (B. anthracis Sterne) | S. aureus count after biocide, tube dilution method (S. aureus) | E. Coli count after biocide, tube dilution method (E. coli)
1 | CCCCCCCC[N+](C)(C)CCOC.[Cl-] [Entry 5] | 2.5 | 0.18 | < 0.312 | 0.625 |  |  | 
2 | c1ccncc1 [Pyridinium] |  |  |  |  | 10^6 cfu/mL | 10^6 cfu/mL | 10^7 cfu/mL
3 | CCCCCC[N+](C)(C)CCOCCO.[Cl-] [Entry 10, Hexyl-(2-(2-hydroxy-ethoxy)-ethyl)dimethylammonium chloride] | > 5 | > 5 | > 5 | 5 |  |  | 
4 | CCCCCC[N+](C)(C)CCOCCOCCOCCOC.[Cl-] [Entry 4] | 5 | 2.5 | 5 | 2.5 |  |  | 
5 | CCCCCC[N+](C)(C)CCOC.[Br-] [Entry 1, Hexyl-(2-methoxy-ethyl)-dimethyl-ammonium bromide] | 2.5 | 2.5 | 5 | 2.5 |  |  | 
6 | CCCCCCCC[N+](C)(C)CCOCCOC.[Cl-] [Entry 6] | 5 | 0.31 | 1.25 | 2.5 |  |  | 
7 | CCCCCC[N+](C)(C)CCOCCOC.[Br-] [Entry 2, Hexyl-[2-(2-methoxy-ethoxy)-ethyl]-dimethyl-ammonium bromide] | > 5 | > 5 | > 5 | 2.5 |  |  | 
8 | CCCCCCCC[N+](C)(C)CCOCCO.[Cl-] [Entry 9, Octyl-(2-(2-hydroxy-ethoxy)-ethyl)dimethylammonium chloride] | 5 | 1.25 | 1.25 | 5 |  |  | 
9 | CCCCCCCC[N+](C)(C)CCOCCOCCOC.[Cl-] [Entry 7] | 2.5 | 0.5 | 0.625 | 2.5 |  |  | 
10 | CCCCCC[N+](C)(C)CCOCCOCCOC.[Cl-] [Entry 3] | > 5 | > 5 | 2.5 | 2.5 |  |  | 
11 | CCCCCCCC[N+](C)(C)CCOCCOCCOCCOC.[Cl-] [Entry 8] | 2.5 | 0.8 | 0.312 | 1.25 |  |  | 

Reference: patent US7452951B2, “Multifunctional self-decontaminating surface coating” (priority 2004, dated 2008)
